The structures appear in SMILES notation. pKi: −log10 of the molar value. Activity calls are given as the source filed them. No cut-off for these calls is given here.

The values that follow come from ChEMBL document CHEMBL1133221 (2000).

Experiment [1] in a line: Inhibitory activity against chitin synthase from Saccharomyces cerevisiae.
For experiment [2], the system named is Microsporum canis. As to the kind of experiment: Inhibitory activity against chitin synthase from Microsporum canis at 128 ug/mL; No inhibition.
Experiment [3] addresses Chitin synthase 1 (Candida albicans) (UniProt P23316). The experiment can be described thus: Inhibitory activity against chitin synthase from Candida albicans at 128 ug/mL; No inhibition.
For experiment [4], the system named is Aspergillus fumigatus. The experiment can be described thus: Inhibitory activity against chitin synthase from Aspergillus fumigatus at 128 ug/mL; No inhibition.
Experiment [5] deals with trychophyton mentagrophytes. The experiment can be described thus: Inhibitory activity against chitin synthase from Trichophyton mentagrophytes at 128 ug/mL; No inhibition.
Experiment [6] in a line: Inhibitory activity against chitin synthase from Saccharomyces cerevisiae at a concentration up to 500 uM; No inhibition.
Experiment [7] concerns Cryptococcus neoformans. The experiment can be described thus: Inhibitory activity against chitin synthase from Cryptococcus neoformans at 128 ug/mL; No inhibition.

Chain of Chitin synthase 1 (Candida albicans) (P23316 whole entry, looked up): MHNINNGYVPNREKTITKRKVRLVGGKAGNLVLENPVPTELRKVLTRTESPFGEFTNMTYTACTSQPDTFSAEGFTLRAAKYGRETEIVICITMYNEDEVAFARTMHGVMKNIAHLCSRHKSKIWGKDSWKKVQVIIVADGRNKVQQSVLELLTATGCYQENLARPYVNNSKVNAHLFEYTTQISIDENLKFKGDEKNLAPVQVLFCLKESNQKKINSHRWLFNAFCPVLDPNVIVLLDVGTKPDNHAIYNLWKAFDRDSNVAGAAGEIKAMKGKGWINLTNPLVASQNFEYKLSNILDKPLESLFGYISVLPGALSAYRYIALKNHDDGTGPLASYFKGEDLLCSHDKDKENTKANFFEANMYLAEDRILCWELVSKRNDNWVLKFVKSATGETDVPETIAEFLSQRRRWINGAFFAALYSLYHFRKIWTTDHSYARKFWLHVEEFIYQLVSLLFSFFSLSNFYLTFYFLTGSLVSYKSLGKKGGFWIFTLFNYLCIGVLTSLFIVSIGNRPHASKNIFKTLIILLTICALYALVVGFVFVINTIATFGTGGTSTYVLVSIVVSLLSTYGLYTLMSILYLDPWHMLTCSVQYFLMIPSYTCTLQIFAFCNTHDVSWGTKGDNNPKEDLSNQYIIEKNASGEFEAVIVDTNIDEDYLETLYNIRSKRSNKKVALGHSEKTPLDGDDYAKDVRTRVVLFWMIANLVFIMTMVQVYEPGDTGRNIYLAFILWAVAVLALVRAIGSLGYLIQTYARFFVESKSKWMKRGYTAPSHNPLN

`C[C@@H]([C@H](N)C(=O)N[C@H](C(=O)O)[C@H]1O[C@@H](n2ccc(=O)[nH]c2=O)[C@H](O)[C@@H]1O)[C@H](O)c1ccc(O)cn1` [NIKKOMYCIN] had a negative-log Ki (pKi) in experiment [1] of 6.22.

Take `CCOP(=O)(OCC)C(F)(F)C1C(O)C(O)C(CO)N1CCNC1C(CO)OC(OC)C(NC(C)=O)C1O` (configuration not stated): the outcome in experiment [2], in experiment [3], in experiment [4], in experiment [5] and in experiment [7] was inactive. Moreover, in experiment [6], the Ki entry is reported as “Not Active”.

By pKi is commonly meant −log10 of the Ki, conventionally taken in molar units.
